Literature values, collected in publication PMC6381106 (Scientific Reports, 2019).

System: TLR4
Details: literature; ref [62]–[65]; cited from earlier work
Description: Multiple anti-inflammatory immunomodulatory therapies have been developed to ameliorate proinflammation following bacterial infection. […] Therefore, novel therapeutic approaches that decrease inflammatory responses should be developed, and researchers should expand the focus beyond agents that only treat the initial infe ...

For `CCOC(=O)C1=CCCC[C@H]1S(=O)(=O)Nc1ccc(F)cc1Cl` [TAK-242], the “outcome in clinical trials (TLR4 inhibitor; in words)” value is listed as “unsuccessful in clinical trials”.
